Reference: paper PMC10916291, “Cocrystals of a coumarin derivative: an efficient approach towards anti-leishmanial cocrystals against MIL-resistant Leishmania tropica” (IUCrJ, 2024)
Where two headings read alike, the source gives them in different places.

Legend:
in vitro = conditions: mouse
Method: (§1) In vitro biological activities of CU, coformers and synthesized cocrystals 2–6 were evaluated for their MIL-resistant L. tropica promastigotes and cytotoxicity against […]. Detailed methodologies of the biological assays are provided in the supporting information.
(§2) 2. Cytotoxicity assay Protocol:
(§3) Cy totoxicity o f compounds was evaluated in 96-well flat-bo ttomed micro plates by using the standard MTT (3-[4, 5-dimethylthiazole-2-y l]-2 , 5-d iph eny l-tetrazolium bromide) colorimetric assay. For this purpose, 3T3 (mouse fibroblast) cells were cultured in Dulb ecco’s Modified Eagle Medium, supplemented with 5% of fetal bovine serum (FBS), 100 IU/mL of penicillin and 100 µg / m L of strep tomy cin in 75 cm2 flasks, and kept in 5% CO2 incubator at 37° C.
(§4) Exponentially growing cells were harvested, counted with haemocytometer, and diluted with a particular medium. Cell culture with the concentration of 5x10^4 cells/mL was p rep ared and introduced (100 µL/well) into 96-well plates. After overnight incubation, medium was removed and 200 µL of fresh medium was added with different concentrations of compounds (1-30 µM).
(§5) After 48 hrs. 200 µL MTT (0.5 mg/mL) was added to each well, and incubated further for 4 hrs.
(§6) Subsequently, 100 µL of DMSO was added to each well. The extent of MTT reduction to formazan within cells was calculated by measuring the absorbance at 540 nm, using a micro-plate reader (Spectra Max p lus, Molecular Devices, USA). The cy totoxicity was recorded as a concentration causing 50% growth inhibition (IC50) of 3T3 cells. The percent inhibition was calculated by using the fo llo wing formula:
(§7) % Inhibition = 100-((mean of O.D of test compound – mean of O.D of negative control)/ (mean of O.D. of positive control – mean of O.D of negative control)*100).
(§8) The results (% inhibition) were processed by using Soft- Max Pro software (Molecular Devices, […]

[1] = test system: MIL-resistant L. tropica promastigotes; experiment: Growth of MIL-resistant L. tropica line generated by step-wise selection (trypan blue count); format: cell-based, Leishmania tropica; conditions: step-wise selection of MIL up to 196 µM, Fig. 9
Method: L. tropica MIL-unresponsive/resistant parasites were developed and maintained using a step-wise selection of the drug MIL up to a concentration of 196 µM. No significant differences in growth patterns were observed between WT- and MIL-resistant strains.
Figure 9 MIL-resistant L. tropica line generated by step-wise selection. 1 × 10^6 log-phase promastigotes were incubated in the presence of a range of drug concentrations. The surviving cells were quantified with trypan blue dye. Populations of parasites were grown in increasing concentrations of MIL, showing increased resistance to MIL. Bars of both resistant and WT parasites represent the more or less similar growth patterns.
(§9) Biological activities evaluations
1. MIL-resistant L. tropica assay protocol […]
Generation of Miltefosine-unresponsive strain was carried under high MIL pressure by in vitro passage with stepwise increase in the MIL concentration. […] Growth rates were measured for resistant populations and compared with the WT strain. Parasites were counted at an initial concentration of 5 x 10^5 parasites/mL, and growth was measured daily using a Neubauer chamber until the population reached stationary phase. Fu rth ermore, the fluorescence microscopic investigations via DAPI stain were also carried out to supplement the study, and for […]

[2] = test system: MIL-resistant L. tropica promastigotes; experiment: microbe, parasite or virus in culture; format: cell-based, Leishmania tropica; conditions: for IC50: Leishmania tropica, 72 h, read-out: Anti-leishmanial activity against MIL-resistant L. tropica via MTT assay (IC50 = µM ± SEM)
Method: as §1, §9
1. MIL-resistant L. tropica assay protocol
Miltefosine (hexadecylphosphocholine) (LEAP Chem), RPMI-1640 culture medium (Gibco), supplemented with 10% (v/v) heat-inactivated fetal bovine serum (FBS) (Gibco), 2 mM L-glutamine, 1% penicillin/ streptomycin (Sigma), DMSO (ALC labscan), and Trypan blue […]
Clinical Isolate and Generation of MIL resistant line:
Clinical isolate (L. tropica promastigote) from the endemic area of Islamabad (Pakistan) was ob tained from a patient. Promastigote cultures were maintained at 26 °C in RPMI medium, containing 15 % FBS and 1 % penicillin–streptomycin mixture. Clinical isolate was characterized by sequencing.
Generation of Miltefosine-unresponsive strain was carried under high MIL pressure by in vitro passage with stepwise increase in the MIL concentration. At each step, parasites were cultured, and passaged every 3–4 days at an initial concentration of 5x10^5 promastigotes/mL in order to achieve the stable growth, as compared to the wild type isolate. Growth rates were measured for resistant populations and compared with the WT strain. Parasites were counted at an initial concentration of 5 x 10^5 parasites/mL, and growth was measured daily using a Neubauer chamber until the population reached stationary phase. Fu rth ermore, the fluorescence microscopic investigations via DAPI stain were also carried out to supplement the study, and for […]
Promastigote Growth Inhibition Assay
(IC50) of resistant cell proliferation concerning untreated controls, the MTT assay was employed.
The promastigotes in their log phase were used in 96-well plates. 1 × 106 wild-type and resistant […]
promastigotes were dispensed in 96-well plates, and incubated with tested compounds at a range concentration of 200–10 μM (stock concentration 1mg/mL and the working con centrations started from 250 µg/mL) at 27°C for 72 h. After incubation of 72 h, MTT dye (3-(4,5-dimethylthiazol-2-yl)-2,5-diphenyl-2H-tetrazolium bromide) was added and further incubate it for 3–4 h. Amphotericin B, pantamidine and miltefosine were used as th e positive control, untreated promastigotes were used as negative control moreover DMSO control was also added in the study as a stock solution of the compounds that were prepared in DMSO. All the experiments were performed in triplicates. After completion of the experiment the absorbance by Multiskan ascent plate reader at 452 nm and percent inhibition was calculated by the following […]
Cytotoxic concentration (%) = [100- (Absorbance of test)/ (Absorbance of solv ent con trol) ×100]

[3] = test system: 3T3 (normal mouse fibroblast) cell line; experiment: in vitro
Method: as §1, §2, §3, §4, §5, §6, §7, §8

[4] = Thermal analysis (DSC and TGA); format: physicochemical; conditions: heating rate 10°C min^-1, dry N2
Method: DSC and TGA were performed on a LINSEIS STA PT1600 with heating rate of 10°C min^−1. About 20–25 mg of samples were crimped in a ceramic pan and scanned from 30 to 600°C under dry N2 gas purging. The Linseis TA software (version 1.0; Linseis Messgeraete GmbH) was employed for collecting data.

## C[C@@H]1C[C@@H]([C@H](O)CC2CC(=O)NC(=O)C2)C(=O)[C@@H](C)C1 [cyclohexamide, reference compound]
In vitro
  IC50 at 48 h: 0.8 ± 0.14 µM

## CCCCCCCCCCCCCCCCOP(=O)([O-])OCC[N+](C)(C)C [miltefosine, hexadecylphosphocholine, reference compound]
[1]
  Inhibitory effect on cell proliferation of MIL-resistant L. tropica: no inhibitory effects
[2]
  IC50: 169.55 ± 0.078 µM

## Nc1ccc(C(F)(F)F)cn1 [Cocrystal 1c, 2-amino-5-(trifluoromethyl)-pyridine]
[3]
  Cytotoxic activity 3T3 cell line (IC50 = µM ± SEM): Non-cytotoxic
[4]
  Thermal stability up to (TGA/DSC): 48.38 °C

## O=C(O)c1cc2ccccc2oc1=O [Cocrystal 1a, Coumarin-3-carboxylic acid]
[3]
  Cytotoxic activity 3T3 cell line (IC50 = µM ± SEM): Non-cytotoxic
[4]
  Thermal stability up to (TGA/DSC): 191.78 °C

## Nc1nc[nH]n1 [Cocrystal 1f, amitrole]
[3]; 3T3 normal mouse fibroblast, MTT, 48 h, 1-30 µM
  Cytotoxic activity 3T3 cell line (IC50 = µM ± SEM): Non-cytotoxic
[2]
  IC50: 78 ± 0.96 µM
[2]; Table S1, concentration 46.95 (unit not given)
  Percent Inhibitions: 44.0%
[2]; Table S1, concentration 93.88 (unit not given)
  Percent Inhibitions: 53.1%
[2]; Table S1, concentration 187 (unit not given)
  Percent Inhibitions: 63.01%

## Nc1ccc(C(=O)O)cc1 [Cocrystal 1e, p-aminobenzoic acid]
[3]
  Cytotoxic activity 3T3 cell line (IC50 = µM ± SEM): Non-cytotoxic

## Nc1ncccc1Br [Cocrystal 1b, 2-amino-3-bromopyridine]
[3]
  Cytotoxic activity 3T3 cell line (IC50 = µM ± SEM): Non-cytotoxic
[4]
  Thermal stability up to (TGA/DSC): 67.29 °C
